Drawing on patent publication US11566007B2, “Ras inhibitors” (Revolution Medicines, Inc., priority 2019, dated 2023), this text covers EC50 and IC50 for 6 compounds.

Structures are written as SMILES.

Assay [1] concerns NCI-H358 cells (K-Ras G12C). The assay can be described thus: Potency assay: pERK in NCI-H358 cells. In kind it is cell-based, human. The conditions noted are these: Homo sapiens, NCI-H358; H358 KRAS G12C; read-out: pERK EC50. The gist of the method: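 4 h cpd, 37 °C; 10-pt 3-fold series, 10 mM DMSO top stock, duplicates. Readout pERK: AlphaLISA SureFire Ultra or In-Cell Western (IR-800CW secondary, DRAQ5 DNA stain). IC50, 4-PL fit vs log conc.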

The next assay deals with NCI-H358 (K-Ras G12C). The assay can be described thus: CellTiter-Glo cell viability assay, NCI-H358. Type of assay: cell-based, human. To be noted: Homo sapiens, NCI-H358, 120 h, NCI-H358, 5-day treatment; class symbols; read-out: Additional H358 Cell Viability assay data (K-Ras G12C, IC50). The gist of the method:
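Viability measured by CellTiter-Glo luminescence on day 5 following direct addition of compound to plated cells. Values expressed as percent of mean DMSO signal; curves fitted with a four-parameter logistic model.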
On the technique in general: In ATP-based viability assays light output follows the ATP content of the culture.

For the next assay, the target named is K-Ras G12C (Homo sapiens (Human), UniProt P01116+P62937, G12C). The assay can be described thus: Ras-Raf (BRAF RBD) disruption / FRET / MOA assay, KRAS G12C. Type of assay: biochemical. The conditions noted are these: KRAS G12C; Ras-Raf disruption/FRET/MOA assay; read-out: IC50* KRAS G12C FRET data. The gist of the method:
(§1)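 Ternary complex formation (Ras–compound–cyclophilin A) displacing BRAF RBD, monitored by TR-FRET. Three hours at 25° C with compound (top 30 μM final), then 1.5 h with the labelled antibodies. Lower ratio than DMSO indicates disruption; IC50 reported.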

The next assay has as its target K-Ras G13C (Homo sapiens (Human), UniProt P01116+P62937, G13C). The assay can be described thus: Ras-Raf (BRAF RBD) disruption / FRET / MOA assay, KRAS G13C. The conditions noted are these: KRAS G13C; Ras-Raf disruption/FRET/MOA assay; read-out: IC50* KRAS G13C FRET data. In kind it is biochemical. The gist of the method: as §1
The target in another assay is KRAS G12S (Homo sapiens (Human), UniProt P01116+P62937, G12S). The assay can be described thus: Ras-Raf (BRAF RBD) disruption / FRET / MOA assay, KRAS G12S. Type of assay: biochemical. The conditions noted are these: Ras-Raf disruption/FRET/MOA assay; class symbols; read-out: KRAS G12S FRET data IC50. The gist of the method: as §1
The target in a further assay is KRAS G12D (Homo sapiens (Human), UniProt P01116+P62937, G12D). The assay can be described thus: Ras-Raf (BRAF RBD) disruption / FRET / MOA assay, KRAS G12D. In kind it is biochemical. The conditions noted are these: Ras-Raf disruption/FRET/MOA assay; class symbols; read-out: KRAS G12D FRET data IC50. The gist of the method: as §1
In the next assay the target is KRAS G12V (Homo sapiens (Human), UniProt P01116+P62937, G12V). The assay can be described thus: Ras-Raf (BRAF RBD) disruption / FRET / MOA assay, KRAS G12V. Type of assay: biochemical. To be noted: read-out: IC50* KRAS G12V FRET data. The gist of the method:
as §1

The next assay addresses KRAS WT (Homo sapiens (Human), UniProt P01116+P62937). Kind of assay: Ras-Raf (BRAF RBD) disruption / FRET / MOA assay, KRAS WT. The conditions noted are these: read-out: IC50* KRAS WT FRET data. Type of assay: biochemical. The gist of the method:
as §1

Another assay deals with KRAS G13D (Homo sapiens (Human), UniProt P01116+P62937, G13D). The assay can be described thus: Ras-Raf (BRAF RBD) disruption / FRET / MOA assay, KRAS G13D. In kind it is biochemical. The conditions noted are these: read-out: IC50* KRAS G13D FRET data. The gist of the method:
as §1

In the next assay the target is NRAS G12C (Homo sapiens (Human), UniProt P01111+P62937, G12C). The assay can be described thus: Ras-Raf (BRAF RBD) disruption / FRET / MOA assay, NRAS G12C. In kind it is biochemical. The conditions noted are these: read-out: IC50* NRAS G12C FRET data. The gist of the method: as §1
Chain of NRAS G12C (P01111 whole entry G12C): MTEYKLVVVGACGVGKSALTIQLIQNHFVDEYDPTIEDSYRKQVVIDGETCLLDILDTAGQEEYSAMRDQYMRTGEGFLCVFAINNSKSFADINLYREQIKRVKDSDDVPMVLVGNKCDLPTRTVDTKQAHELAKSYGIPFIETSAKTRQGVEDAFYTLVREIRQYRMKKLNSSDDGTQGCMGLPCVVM
Chain of NRAS G12C (P62937 whole entry): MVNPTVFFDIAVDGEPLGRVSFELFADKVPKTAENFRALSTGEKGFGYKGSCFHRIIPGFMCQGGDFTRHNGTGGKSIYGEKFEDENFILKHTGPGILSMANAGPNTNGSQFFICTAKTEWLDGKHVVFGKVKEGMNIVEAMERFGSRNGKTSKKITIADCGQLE

Chain of K-Ras G13C (P01116-2 other isoform, or with tags, fused parts or gaps G13C): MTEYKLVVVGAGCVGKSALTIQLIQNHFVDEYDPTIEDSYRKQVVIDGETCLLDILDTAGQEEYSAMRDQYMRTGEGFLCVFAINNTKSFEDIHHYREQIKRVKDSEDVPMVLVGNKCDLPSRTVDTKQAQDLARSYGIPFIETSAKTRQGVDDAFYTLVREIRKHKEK
Chain of K-Ras G13C (P62937 whole entry): as the sequence (P62937 whole entry) above
Chain of K-Ras G12C (P01116-2 other isoform, or with tags, fused parts or gaps G12C): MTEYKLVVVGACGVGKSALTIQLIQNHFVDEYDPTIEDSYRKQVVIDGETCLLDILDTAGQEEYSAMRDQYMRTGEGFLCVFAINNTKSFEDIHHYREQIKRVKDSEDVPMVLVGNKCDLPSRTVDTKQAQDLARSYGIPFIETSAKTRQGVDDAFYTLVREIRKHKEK
Chain of K-Ras G12C (P62937 whole entry): as the sequence (P62937 whole entry) above
Chain of KRAS G13D (P01116-2 other isoform, or with tags, fused parts or gaps G13D): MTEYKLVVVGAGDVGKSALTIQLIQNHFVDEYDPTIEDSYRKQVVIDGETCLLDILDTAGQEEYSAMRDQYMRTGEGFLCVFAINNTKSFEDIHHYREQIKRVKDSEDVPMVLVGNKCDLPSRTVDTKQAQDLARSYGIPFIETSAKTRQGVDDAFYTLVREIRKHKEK
Chain of KRAS G13D (P62937 whole entry): as the sequence (P62937 whole entry) above
Chain of KRAS WT (P01116-2 other isoform, or with tags, fused parts or gaps): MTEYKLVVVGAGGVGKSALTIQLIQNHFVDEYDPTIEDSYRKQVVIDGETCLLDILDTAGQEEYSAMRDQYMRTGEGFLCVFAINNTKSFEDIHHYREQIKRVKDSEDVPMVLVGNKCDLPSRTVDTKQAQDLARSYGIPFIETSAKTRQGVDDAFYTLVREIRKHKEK
Chain of KRAS WT (P62937 whole entry): as the sequence (P62937 whole entry) above
Chain of KRAS G12S (P01116-2 other isoform, or with tags, fused parts or gaps G12S): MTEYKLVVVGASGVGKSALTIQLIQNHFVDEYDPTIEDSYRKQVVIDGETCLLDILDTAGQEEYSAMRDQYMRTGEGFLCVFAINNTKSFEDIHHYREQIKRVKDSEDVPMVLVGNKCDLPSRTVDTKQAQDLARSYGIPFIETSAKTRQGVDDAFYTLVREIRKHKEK
Chain of KRAS G12S (P62937 whole entry): as the sequence (P62937 whole entry) above
Chain of KRAS G12D (P01116-2 other isoform, or with tags, fused parts or gaps G12D): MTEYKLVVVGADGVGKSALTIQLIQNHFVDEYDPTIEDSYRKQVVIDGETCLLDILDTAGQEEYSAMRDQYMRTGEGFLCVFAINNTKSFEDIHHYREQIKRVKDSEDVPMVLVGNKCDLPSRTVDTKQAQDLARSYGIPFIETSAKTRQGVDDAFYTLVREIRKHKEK
Chain of KRAS G12D (P62937 whole entry): as the sequence (P62937 whole entry) above
Chain of KRAS G12V (P01116-2 other isoform, or with tags, fused parts or gaps G12V): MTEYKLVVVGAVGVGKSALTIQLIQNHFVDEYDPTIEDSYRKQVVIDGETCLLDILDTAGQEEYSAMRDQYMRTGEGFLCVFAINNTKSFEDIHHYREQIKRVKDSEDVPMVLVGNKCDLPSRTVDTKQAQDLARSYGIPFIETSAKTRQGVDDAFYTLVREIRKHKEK
Chain of KRAS G12V (P62937 whole entry): as the sequence (P62937 whole entry) above

A word on the EC50: it is the midpoint of the concentration-response curve. Broadly, the IC50 is the concentration that inhibits the measured activity by half. With `CCn1c(-c2cccnc2)c2c3cc(ccc31)-c1cccc(c1)C[C@H](NC(=O)[C@H](C(C)C)N(C)C(=O)[C@H]1CCN(C(=O)C#CCN(C)C)C1)C(=O)N1CCC[C@H](N1)C(=O)OCC(C)(C)C2` [Example A152], in [1], the EC50 is less than 5000 nM. Further, the concentration for half-maximal inhibition (IC50) in the assay on NCI-H358 (K-Ras G12C) was 10 to 100 nM; on K-Ras G12C, 10 to 100 nM; on K-Ras G13C, 1000 to 10000 nM; on KRAS G12S it was more than 10000 nM; at KRAS G12D, 1000 to 10000 nM; at KRAS G12V it was 1000 to 10000 nM. For the same compound, the IC50 at KRAS WT lay within 1000 to 10000 nM; at KRAS G13D, 1000 to 10000 nM; on NRAS G12C it was 10 to 100 nM.

Regarding `CCn1c(-c2cnccc2COC)c2c3cc(ccc31)-c1cc(O)cc(c1)C[C@H](NC(=O)[C@H](C(C)C)N(C)C(=O)[C@H]1CCN(C(=O)C(C)(C)N(C)C)C1)C(=O)N1CCC[C@H](N1)C(=O)OCC(C)(C)C2` [Example A153], the EC50 in assay [1] is less than 5000 nM. For the same compound, the 50% inhibitory concentration (IC50) with NCI-H358 (K-Ras G12C) lay in the range of 100 to 1000 nM; on K-Ras G12C, 10 to 100 nM; at K-Ras G13C it was 100 to 1000 nM; at KRAS G12S, 100 to 1000 nM; at KRAS G12D, 100 to 1000 nM; on KRAS G12V it was 100 to 1000 nM. For the same compound, the values for the half-maximal inhibitory concentration (IC50) on KRAS WT, on KRAS G13D and at NRAS G12C were 100 to 1000 nM, 100 to 1000 nM and 10 to 100 nM, respectively.

`C=CC(=O)N1CC[C@H](C(=O)N(C)[C@H](C(=O)N[C@H]2Cc3cc(O)cc(c3)-c3ccc4c(c3)c(c(-c3cn(C)nc3[C@H](C)OC)n4CC)CC(C)(C)COC(=O)[C@@H]3CCCN(N3)C2=O)C(C)C)C1` [Example A154]: in assay [1], the EC50 was less than 5000 nM. Besides, the 50% inhibitory concentration (IC50) in the assay with NCI-H358 (K-Ras G12C) lay in the range of 10 to 100 nM; at K-Ras G12C it was 10 to 100 nM; at K-Ras G13C it was 1000 to 10000 nM; on KRAS G12S, 100 to 1000 nM; on KRAS G12D, 1000 to 10000 nM; on KRAS G12V, 100 to 1000 nM. Moreover, the IC50 lay in the range of 1000 to 10000 nM at KRAS WT, 1000 to 10000 nM at KRAS G13D and 10 to 100 nM on NRAS G12C.

As for `CCn1c(-c2cccnc2COC)c2c3cc(ccc31)-c1cc(C)cc(c1)C[C@H](NC(=O)[C@H](C(C)C)N(C)C(=O)[C@H]1CCN(C(=O)C#CCN(C)C)C1)C(=O)N1CCC[C@H](N1)C(=O)OCC(C)(C)C2` [Example A156], the concentration for a half-maximal effect (EC50) in [1] was less than 5000 nM. The 50% inhibitory concentration (IC50) is 10 to 100 nM with NCI-H358 (K-Ras G12C); 10 to 100 nM at K-Ras G12C; 1000 to 10000 nM on K-Ras G13C; more than 10000 nM at KRAS G12S; 1000 to 10000 nM on KRAS G12D; more than 10000 nM at KRAS G12V. The IC50 on KRAS WT is more than 10000 nM; on KRAS G13D, 1000 to 10000 nM; on NRAS G12C, 100 to 1000 nM.

With `C=CC(=O)N1C[C@@H](C(=O)N(C)[C@H](C(=O)N[C@H]2Cc3cc(O)cc(c3)-c3ccc4c(c3)c(c(-c3cccnc3COC)n4CC)CC(C)(C)COC(=O)[C@@H]3CCCN(N3)C2=O)C(C)C)C[C@H]1C` [Example A158], the EC50 in assay [1] was less than 5000 nM. The IC50 was 10 to 100 nM in the assay on NCI-H358 (K-Ras G12C); 10 to 100 nM at K-Ras G12C; 100 to 1000 nM on K-Ras G13C; 100 to 1000 nM on KRAS G12S; more than 10000 nM on KRAS G12D; 1000 to 10000 nM on KRAS G12V. Also, the IC50 lay within 100 to 1000 nM at KRAS WT, 100 to 1000 nM on KRAS G13D and 10 to 100 nM on NRAS G12C.

Take `C=CC(=O)N1C[C@@H](C(=O)N(C)[C@@H](C(=O)N[C@H]2Cc3cc(O)cc(c3)-c3ccc4c(c3)c(c(-c3cccnc3COC)n4CC)CC(C)(C)COC(=O)[C@@H]3CCCN(N3)C2=O)C(C)C)C[C@H]1C` [Example A159]: in [1], the concentration for a half-maximal effect (EC50) is less than 5000 nM. Further, the IC50 in the assay on NCI-H358 (K-Ras G12C) was 100 to 1000 nM; on K-Ras G12C, 100 to 1000 nM; on K-Ras G13C it was more than 10000 nM; on KRAS G12S it was 1000 to 10000 nM; on KRAS G12D, more than 10000 nM; on KRAS G12V it was 1000 to 10000 nM. Moreover, the IC50 at KRAS WT fell in the range of 1000 to 10000 nM; at KRAS G13D, 1000 to 10000 nM; at NRAS G12C, 100 to 1000 nM.
